Measured values taken from patent US9961896B2, “Cleaning liquid” (priority 2013, dated 2018).

Legend:
Assay in all cases: EN 1276 bactericidal activity
Format in all cases: cell-based
Settings in all cases: diluted to 1:20 v/v; 5 minutes at 20° C.; dirty conditions
[1] = tested on: Pseudomonas aeruginosa (NCI MB 10421)
[2] = tested on: Escherichia coli (NCTC 10418)
[3] = tested on: Staphylococcus aureus (NCTC 10788)
[4] = tested on: Enterococcus hirae (NCIMB 8192)

Measured: passes the requirements of EN 1276 for bactericidal activity

CCCCCCCCCC[N+](C)(C)CCCCCCCCCC.[Cl-] [Acticide DDQ50, Didecyl Dimethyl Ammonium Chloride]
does not pass: all assays above

O=[N+]([O-])C(Br)(CO)CO [Acticide L, Bronopol]
does not pass: all assays above

Cc1cc(O)ccc1Cl [Acticide PCMC, P-chloro-m-cresol]
does not pass: all assays above

Benzalkonium chloride [Acticide BAC50M]
does not pass: all assays above
